Measurements: ChEMBL document CHEMBL3217507, “3,3-Dimethyl-1H-pyrrolo[3,2-g]quinolin-2(3H)-one derivatives as novel Raf kinase inhibitors” (Medchemcomm, 2013)

Key:
[1] = Cytotoxicity against human KCC-853 cells after 72 hrs by MTT assay; format: functional, cell-based; conditions: KCC-853, 72 h
[2] = target: RAF proto-oncogene serine/threonine-protein kinase (Homo sapiens) (UniProt P04049); assay: Inhibition of c-RAF (unknown origin) using [33P]ATP by […] assay
HepG2 = assay: Cytotoxicity against human HepG2 cells after 72 hrs by MTT assay; format: functional, cell-based; conditions: HepG2, 72 h
A549 = assay: Cytotoxicity against human A549 cells after 72 hrs by MTT assay; format: functional, cell-based; conditions: A549, 72 h
[3] = target: Vascular endothelial growth factor receptor 2 (Homo sapiens) (UniProt P35968); assay: Inhibition of VEGFR2 (unknown origin) at 10 uM
[4] = target: Vascular endothelial growth factor receptor 2 (Homo sapiens) (UniProt P35968); assay: Inhibition of KDR (unknown origin) at 10 uM
Homo sapiens = species: Homo sapiens; assay: Inhibition of PKA (unknown origin) at 10 uM
[5] = target: Mast/stem cell growth factor receptor Kit (Homo sapiens) (UniProt P10721); assay: Inhibition of c-Kit (unknown origin) at 10 uM
[6] = target: Macrophage colony-stimulating factor 1 receptor (Homo sapiens) (UniProt P07333); assay: Inhibition of FMS (unknown origin) at 10 uM
[7] = target: Tyrosine-protein kinase JAK2 (Homo sapiens) (UniProt O60674); assay: Inhibition of JAK2 (unknown origin) at 10 uM
[8] = target: Tyrosine-protein kinase Fyn (Homo sapiens) (UniProt P06241); assay: Inhibition of FYN (unknown origin) at 10 uM
[9] = target: Receptor-type tyrosine-protein kinase FLT3 (Homo sapiens) (UniProt P36888); assay: Inhibition of FLT3 (unknown origin) at 10 uM
[10] = target: Fibroblast growth factor receptor 1 (Homo sapiens) (UniProt P11362); assay: Inhibition of FGFR1 (unknown origin) at 10 uM
[11] = target: RAF proto-oncogene serine/threonine-protein kinase (Homo sapiens) (UniProt P04049); assay: Inhibition of c-RAF (unknown origin) at 10 uM
[12] = target: Angiopoietin-1 receptor (Homo sapiens) (UniProt Q02763); assay: Inhibition of TIE2 (unknown origin) at 10 uM
[13] = target: Focal adhesion kinase 1 (Homo sapiens) (UniProt Q05397); assay: Inhibition of PTK2 (unknown origin) at 10 uM
[14] = target: Tyrosine-protein kinase ABL1 (Homo sapiens) (UniProt P00519); assay: Inhibition of ABL1 (unknown origin) at 10 uM
[15] = target: Cyclin-dependent kinase 2 (Homo sapiens) (UniProt P24941); assay: Inhibition of CDK2 (unknown origin) at 10 uM
[16] = target: Tyrosine-protein kinase SYK (Homo sapiens) (UniProt P43405); assay: Inhibition of SYK (unknown origin) at 10 uM
[17] = target: Serine/threonine-protein kinase PLK1 (Homo sapiens) (UniProt P53350); assay: Inhibition of PLK1 (unknown origin) at 10 uM
[18] = target: Inhibitor of nuclear factor kappa-B kinase subunit beta (Homo sapiens) (UniProt O14920); assay: Inhibition of IKKbeta (unknown origin) at 10 uM
[19] = target: RAC-alpha serine/threonine-protein kinase (Homo sapiens) (UniProt P31749); assay: Inhibition of AKT1 (unknown origin) at 10 uM
[20] = target: Platelet-derived growth factor receptor alpha (Homo sapiens) (UniProt P16234); assay: Inhibition of PDGFR-alpha (unknown origin) at 10 uM
[21] = target: Hepatocyte growth factor receptor (Homo sapiens) (UniProt P08581); assay: Inhibition of c-MET (unknown origin) at 10 uM

RAF proto-oncogene serine/threonine-protein kinase (Homo sapiens), sequence (P04049 whole entry): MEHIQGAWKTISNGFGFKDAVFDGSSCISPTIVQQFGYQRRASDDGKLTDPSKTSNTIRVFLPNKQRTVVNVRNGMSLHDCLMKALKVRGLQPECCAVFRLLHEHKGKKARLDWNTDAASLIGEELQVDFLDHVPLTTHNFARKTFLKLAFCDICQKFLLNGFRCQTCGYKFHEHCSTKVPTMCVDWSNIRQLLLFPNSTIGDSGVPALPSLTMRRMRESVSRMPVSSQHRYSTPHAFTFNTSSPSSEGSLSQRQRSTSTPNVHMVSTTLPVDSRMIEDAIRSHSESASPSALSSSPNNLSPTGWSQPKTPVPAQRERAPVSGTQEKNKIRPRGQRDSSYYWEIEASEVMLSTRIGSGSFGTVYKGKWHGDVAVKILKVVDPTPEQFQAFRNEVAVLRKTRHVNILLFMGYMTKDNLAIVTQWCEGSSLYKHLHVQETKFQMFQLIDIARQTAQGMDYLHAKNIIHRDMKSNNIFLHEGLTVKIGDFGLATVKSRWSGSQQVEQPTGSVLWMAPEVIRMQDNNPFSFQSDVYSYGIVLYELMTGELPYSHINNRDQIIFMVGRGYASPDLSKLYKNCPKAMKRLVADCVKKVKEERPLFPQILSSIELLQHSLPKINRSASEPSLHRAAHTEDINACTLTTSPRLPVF
Vascular endothelial growth factor receptor 2 (Homo sapiens), sequence (P35968 whole entry): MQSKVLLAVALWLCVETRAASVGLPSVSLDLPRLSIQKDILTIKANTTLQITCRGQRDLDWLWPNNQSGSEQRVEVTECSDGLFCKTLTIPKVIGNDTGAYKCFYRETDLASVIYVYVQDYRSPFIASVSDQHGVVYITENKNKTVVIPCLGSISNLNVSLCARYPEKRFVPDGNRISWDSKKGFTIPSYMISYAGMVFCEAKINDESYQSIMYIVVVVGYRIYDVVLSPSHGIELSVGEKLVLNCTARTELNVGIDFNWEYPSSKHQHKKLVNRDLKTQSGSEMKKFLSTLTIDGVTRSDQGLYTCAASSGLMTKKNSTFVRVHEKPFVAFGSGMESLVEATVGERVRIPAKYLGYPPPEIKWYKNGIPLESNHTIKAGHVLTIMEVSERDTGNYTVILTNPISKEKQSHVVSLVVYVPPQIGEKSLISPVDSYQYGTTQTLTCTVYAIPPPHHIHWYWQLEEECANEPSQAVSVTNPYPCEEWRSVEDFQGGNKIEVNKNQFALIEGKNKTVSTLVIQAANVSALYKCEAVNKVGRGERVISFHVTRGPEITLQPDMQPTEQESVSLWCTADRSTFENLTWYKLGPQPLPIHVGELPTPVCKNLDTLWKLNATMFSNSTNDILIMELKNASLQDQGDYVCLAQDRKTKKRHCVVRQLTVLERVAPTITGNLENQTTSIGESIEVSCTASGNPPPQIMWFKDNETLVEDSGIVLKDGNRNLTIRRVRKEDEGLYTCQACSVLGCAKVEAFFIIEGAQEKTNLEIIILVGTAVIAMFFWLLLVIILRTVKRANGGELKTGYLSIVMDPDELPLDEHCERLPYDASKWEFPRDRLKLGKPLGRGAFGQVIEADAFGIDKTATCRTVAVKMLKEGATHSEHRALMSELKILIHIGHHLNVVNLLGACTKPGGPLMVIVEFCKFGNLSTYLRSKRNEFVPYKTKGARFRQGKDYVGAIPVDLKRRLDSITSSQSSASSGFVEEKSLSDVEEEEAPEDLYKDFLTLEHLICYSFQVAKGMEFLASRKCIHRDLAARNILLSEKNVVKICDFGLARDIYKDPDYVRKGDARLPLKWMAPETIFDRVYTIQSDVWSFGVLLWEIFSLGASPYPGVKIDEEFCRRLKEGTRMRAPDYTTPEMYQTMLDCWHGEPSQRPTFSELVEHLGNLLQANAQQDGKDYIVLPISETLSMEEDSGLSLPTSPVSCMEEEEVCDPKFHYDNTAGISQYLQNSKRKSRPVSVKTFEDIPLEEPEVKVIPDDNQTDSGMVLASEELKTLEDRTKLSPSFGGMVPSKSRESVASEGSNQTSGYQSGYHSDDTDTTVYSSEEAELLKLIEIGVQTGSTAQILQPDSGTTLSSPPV
Tyrosine-protein kinase Fyn (Homo sapiens), sequence (P06241 2-537 limits assumed): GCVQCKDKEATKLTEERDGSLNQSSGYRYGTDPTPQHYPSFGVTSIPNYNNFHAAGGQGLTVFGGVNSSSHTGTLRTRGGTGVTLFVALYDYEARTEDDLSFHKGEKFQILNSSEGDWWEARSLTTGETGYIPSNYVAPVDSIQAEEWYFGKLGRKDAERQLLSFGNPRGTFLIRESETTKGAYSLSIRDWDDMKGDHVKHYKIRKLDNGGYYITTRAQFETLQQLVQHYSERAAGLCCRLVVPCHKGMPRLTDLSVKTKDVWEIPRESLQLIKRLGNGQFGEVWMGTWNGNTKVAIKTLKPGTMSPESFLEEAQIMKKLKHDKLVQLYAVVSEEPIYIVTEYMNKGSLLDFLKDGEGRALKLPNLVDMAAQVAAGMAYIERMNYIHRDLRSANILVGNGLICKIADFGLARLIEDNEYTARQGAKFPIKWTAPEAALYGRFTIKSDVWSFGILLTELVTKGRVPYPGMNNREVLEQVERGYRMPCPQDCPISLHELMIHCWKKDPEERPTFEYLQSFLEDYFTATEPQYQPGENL
Inhibitor of nuclear factor kappa-B kinase subunit beta (Homo sapiens), sequence (O14920 whole entry): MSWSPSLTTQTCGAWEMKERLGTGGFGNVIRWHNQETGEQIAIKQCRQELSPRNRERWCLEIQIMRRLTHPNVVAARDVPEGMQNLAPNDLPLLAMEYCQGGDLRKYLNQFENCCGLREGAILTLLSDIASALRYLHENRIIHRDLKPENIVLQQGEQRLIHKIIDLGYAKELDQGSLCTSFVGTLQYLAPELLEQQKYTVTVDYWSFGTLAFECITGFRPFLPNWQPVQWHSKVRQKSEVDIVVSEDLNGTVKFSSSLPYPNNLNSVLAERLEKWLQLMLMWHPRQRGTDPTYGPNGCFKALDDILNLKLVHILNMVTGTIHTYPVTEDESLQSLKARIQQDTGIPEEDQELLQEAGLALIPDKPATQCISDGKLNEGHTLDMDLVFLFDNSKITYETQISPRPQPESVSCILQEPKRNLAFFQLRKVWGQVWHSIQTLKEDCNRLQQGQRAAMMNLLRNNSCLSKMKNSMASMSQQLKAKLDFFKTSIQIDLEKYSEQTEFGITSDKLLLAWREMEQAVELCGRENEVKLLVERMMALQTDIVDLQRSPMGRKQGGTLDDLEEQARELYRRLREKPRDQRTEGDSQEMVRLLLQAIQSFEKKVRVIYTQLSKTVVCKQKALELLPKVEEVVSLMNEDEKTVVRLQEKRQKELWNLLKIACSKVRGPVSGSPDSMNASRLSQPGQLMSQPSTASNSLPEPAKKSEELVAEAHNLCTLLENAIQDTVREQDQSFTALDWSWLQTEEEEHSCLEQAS
Platelet-derived growth factor receptor alpha (Homo sapiens), sequence (P16234 whole entry): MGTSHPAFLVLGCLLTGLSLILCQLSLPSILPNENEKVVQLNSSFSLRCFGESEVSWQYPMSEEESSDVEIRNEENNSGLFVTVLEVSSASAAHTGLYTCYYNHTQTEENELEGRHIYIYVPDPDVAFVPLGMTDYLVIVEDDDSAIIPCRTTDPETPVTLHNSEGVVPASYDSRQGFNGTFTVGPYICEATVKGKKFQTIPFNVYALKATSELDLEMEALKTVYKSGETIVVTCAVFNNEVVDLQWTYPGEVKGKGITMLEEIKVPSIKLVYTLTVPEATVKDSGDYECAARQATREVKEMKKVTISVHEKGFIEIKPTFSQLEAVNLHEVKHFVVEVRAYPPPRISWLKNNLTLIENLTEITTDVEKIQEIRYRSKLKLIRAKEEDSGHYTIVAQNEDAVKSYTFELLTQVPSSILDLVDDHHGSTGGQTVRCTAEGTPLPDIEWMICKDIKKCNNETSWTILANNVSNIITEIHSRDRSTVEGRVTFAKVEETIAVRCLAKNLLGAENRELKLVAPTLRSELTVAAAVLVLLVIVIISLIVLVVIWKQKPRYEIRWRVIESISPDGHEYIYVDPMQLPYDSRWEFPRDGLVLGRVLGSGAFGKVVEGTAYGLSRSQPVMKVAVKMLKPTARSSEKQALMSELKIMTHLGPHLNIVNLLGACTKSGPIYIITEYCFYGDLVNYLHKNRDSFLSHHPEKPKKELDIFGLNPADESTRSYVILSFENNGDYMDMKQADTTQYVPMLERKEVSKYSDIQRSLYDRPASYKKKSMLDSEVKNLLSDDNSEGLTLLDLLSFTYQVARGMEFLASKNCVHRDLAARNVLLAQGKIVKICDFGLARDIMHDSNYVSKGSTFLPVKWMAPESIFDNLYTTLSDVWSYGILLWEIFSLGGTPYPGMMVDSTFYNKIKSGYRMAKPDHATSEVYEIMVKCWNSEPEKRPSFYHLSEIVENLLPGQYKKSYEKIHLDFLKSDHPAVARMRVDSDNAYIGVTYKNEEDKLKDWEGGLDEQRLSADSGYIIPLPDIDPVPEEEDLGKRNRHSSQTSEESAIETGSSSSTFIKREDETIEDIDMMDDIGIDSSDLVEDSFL
Serine/threonine-protein kinase PLK1 (Homo sapiens), sequence (P53350 whole entry): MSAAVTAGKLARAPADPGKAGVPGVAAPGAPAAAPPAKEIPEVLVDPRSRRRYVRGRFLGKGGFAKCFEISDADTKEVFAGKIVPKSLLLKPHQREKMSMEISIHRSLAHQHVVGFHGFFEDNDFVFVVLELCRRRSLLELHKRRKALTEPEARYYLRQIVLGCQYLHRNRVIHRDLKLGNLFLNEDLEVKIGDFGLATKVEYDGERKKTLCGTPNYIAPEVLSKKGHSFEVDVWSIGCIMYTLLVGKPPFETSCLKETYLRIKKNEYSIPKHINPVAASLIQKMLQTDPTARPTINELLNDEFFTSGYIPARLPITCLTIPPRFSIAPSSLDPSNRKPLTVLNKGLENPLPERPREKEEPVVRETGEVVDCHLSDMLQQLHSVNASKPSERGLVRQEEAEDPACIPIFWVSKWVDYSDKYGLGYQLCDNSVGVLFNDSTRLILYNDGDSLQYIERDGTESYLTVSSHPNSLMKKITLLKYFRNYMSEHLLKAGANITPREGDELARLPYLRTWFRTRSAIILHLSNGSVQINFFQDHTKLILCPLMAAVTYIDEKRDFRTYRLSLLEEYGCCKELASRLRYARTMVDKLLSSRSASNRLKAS

Structure (SMILES)	IC50 [1]	IC50 [2]	IC50 (HepG2)	IC50 (A549)	other results
CNC(=O)c1cc(Oc2ccc(NC(=O)Nc3ccc(Cl)c(C(F)(F)F)c3)cc2)ccn1 [SORAFENIB]	6.78 µM	0.0285 µM	12.7 µM	5.23 µM	
CC1(C)C(=O)Nc2cc3nccc(Oc4ccc(NC(=O)Nc5cccc(F)c5)cc4F)c3cc21	5.64 µM	0.0252 µM	15.5 µM	7.71 µM	
CC1(C)C(=O)Nc2cc3nccc(Oc4ccc(NC(=O)Nc5cccc(F)c5)cc4Cl)c3cc21	6.49 µM	0.0221 µM	7.35 µM	4.38 µM	
CC1(C)C(=O)Nc2cc3nccc(Oc4ccc(NC(=O)Nc5cccc(F)c5)cc4)c3cc21	10.6 µM	0.0373 µM	12 µM	5.46 µM	
Cc1cc(NC(=O)Nc2ccc(Oc3ccnc4cc5c(cc34)C(C)(C)C(=O)N5)c(F)c2)no1	4.18 µM	0.0272 µM	12 µM	5.03 µM	
CC1(C)C(=O)Nc2cc3nccc(Oc4ccc(NC(=O)Nc5ccc(F)c(C(F)(F)F)c5)cc4)c3cc21	4.23 µM	0.0147 µM	9.56 µM	3.2 µM	
Cc1cc(NC(=O)Nc2ccc(Oc3ccnc4cc5c(cc34)C(C)(C)C(=O)N5)c(Cl)c2)no1	5.86 µM	0.0187 µM	8.46 µM	5.76 µM	
Cc1cccc(C)c1NC(=O)Nc1ccc(Oc2ccnc3cc4c(cc23)C(C)(C)C(=O)N4)cc1	10.3 µM	0.0521 µM	20.3 µM	10.5 µM	
Cc1cc(NC(=O)Nc2ccc(Oc3ccnc4cc5c(cc34)C(C)(C)C(=O)N5)cc2)no1	10.1 µM	0.0585 µM	31.7 µM	6.47 µM	
CC1(C)C(=O)Nc2cc3nccc(Oc4ccc(NC(=O)Nc5ccc(F)c(C(F)(F)F)c5)cc4Cl)c3cc21	1.1 µM	0.0087 µM	6.36 µM	0.916 µM	inhibition [3]: 34.1%; inhibition [4]: 1.4%; inhibition (Homo sapiens): 1.3%; inhibition [5]: 18.7%; inhibition [6]: 46.9%; inhibition [7]: 0.2%; inhibition [8]: 0.6%; inhibition [9]: 15.3%; inhibition [10]: 20.2%; inhibition [11]: 94.6%; inhibition [12]: 22.3%; inhibition [13]: 3.6%; inhibition [14]: 26.2%; inhibition [15]: 7.8%; inhibition [16]: 15%; inhibition [17]: 4.9%; inhibition [18]: 4.7%; inhibition [19]: 16.5%; inhibition [20]: 0.3%; inhibition [21]: 1.5%
CC1(C)C(=O)Nc2cc3nccc(Oc4ccc(NC(=O)Nc5ccc(F)c(C(F)(F)F)c5)cc4F)c3cc21	2.85 µM	0.0159 µM	8.09 µM	2.16 µM	
Cc1cccc(C)c1NC(=O)Nc1ccc(Oc2ccnc3cc4c(cc23)C(C)(C)C(=O)N4)c(Cl)c1	4.39 µM	0.0281 µM	11.2 µM	3.85 µM	
Cc1cccc(C)c1NC(=O)Nc1ccc(Oc2ccnc3cc4c(cc23)C(C)(C)C(=O)N4)c(F)c1	3.75 µM	0.0303 µM	10.3 µM	4.07 µM	
